In patent publication US10472347B2, “Aminopyrazine compounds with A2A antagonist properties” (Merck Sharp & Dohme Corp., priority 2014, dated 2019):

Molecular target: T1, human A2a receptor (Homo sapiens, UniProt P29274)
T1 construct: purchased Perkin-Elmer RBHA2AM400UA; host or cells: HEK293 cells (membranes)
Assay: A2a competition binding assay, Scintillation Proximity technology
Details: membranes from HEK293 cells expressing human A2a receptor; 0.5 nM tritiated ligand
Protocol: Binding affinities of compounds of the invention for the human A2a receptor were determined in a competition binding assay using Scintillation Proximity technology. Thus, […] from HEK293 cells expressing the human A2a receptor were incubated with a compound of the invention at concentrations ranging from 3000 nM to 0.15 nM in a reaction mixture containing also 0.5 nM of a tritiated form of 5-amino-7-[2-phenethyl]-2-(furan-2-yl)-7H-pyrazolo[4,3-e][1,2,4]triazolo[1,5-c]pyrimidine (the tritiated compound) and 100 μg of wheat germ agglutin-coated yttrium silicate SPA beads for one hour at room temperature with agitation. The beads were then allowed to settle to the bottom of the wells for 1 hr, after which the membrane-associated radioactivity was determined by scintillation counting in a TopCount microplate reader. Ki values were determined using the Cheng-Prusoff equation.
HEK293 cells expressing the human, rat, dog or monkey adenosine 2a receptor (Purchased from Perkin-Elmer # RBHA2AM400UA).
The Tritiated compound was prepared in-house by MRL Radiochemistry according to published methods.
Wheat germ agglutinin-coated yttrium silicate SPA beads (GE Healthcare #RPNQ0023). Dilute to 25 mg/ml in assay buffer.
Assay Buffer was prepared in house: Dulbecco's calcium and magnesium free phosphate buffered saline+10 mM MgCl2
Adenosine deaminase from calf intestine, 10 mg/2 ml (Roche #10 102 105 001).
A2a antagonist standard (9-chloro-1-(2-furanyl)-[1,2,4]triazolo1,5-c]quinazolin-5-amine from Tocris Bioscience)
Make eight 1:3 serial dilutions in 100% DMSO from a 3 mM compound stock
Transfer 50 nl of compound into a 384-well OptiPlate (Perkin Elmer).
Typically, final concentrations of compound used in the assay ranged from 3000 nM to 0.152 nM.
Dilute a solution of the Tritiated compound to 1.25 nM in assay buffer. This is a 2.5× solution. The final concentration in the assay is 0.5 nM. Calculate the concentration by counting two 5 μl aliquots.
Use 0.25 ug of membrane/well. Dilute membranes to 9.7 μg/ml in assay buffer. Treat with 20 ug/ml adenosine deaminase (ADA) for 15 minutes at room temperature to degrade endogenous adenosine.
Use 100 μg/well wheat germ agglutinin-coated yttrium silicate SPA beads.
Mix ADA-treated membranes and SPA beads together for 30 min prior to assay.
To the Perkin-Elmer Optiplate-384 containing the compound titration add 20 μl of 2.5× solution of the Tritiated compound and 30 μl of the membrane-bead mixture. Incubate for one hour at room temperature with agitation.
Include total binding (assay buffer+1% DMSO) and non-specific binding (CGS15943, 1 μM) wells.
Allow the beads to settle for one hour.
A curve fitting program (i.e., Prism, Activity Base, Chemcart) is used to determine the EC50. The Ki value is calculated using the Cheng-Prusoff equation. Ki=EC50/(1+(radioligand concentration/Kd))

T1 sequence (P29274 whole entry): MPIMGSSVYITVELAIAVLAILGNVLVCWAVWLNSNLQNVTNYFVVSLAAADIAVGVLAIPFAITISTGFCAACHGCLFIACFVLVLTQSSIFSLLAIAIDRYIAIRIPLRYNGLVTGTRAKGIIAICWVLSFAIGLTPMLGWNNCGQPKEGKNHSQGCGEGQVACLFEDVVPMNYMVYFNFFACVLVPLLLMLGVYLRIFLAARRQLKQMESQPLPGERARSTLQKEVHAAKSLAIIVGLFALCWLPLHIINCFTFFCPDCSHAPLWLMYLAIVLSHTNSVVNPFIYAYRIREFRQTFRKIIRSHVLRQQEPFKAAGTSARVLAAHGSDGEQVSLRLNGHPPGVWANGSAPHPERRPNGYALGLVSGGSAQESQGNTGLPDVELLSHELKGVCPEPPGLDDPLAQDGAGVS

Row | Structure (SMILES) | EC50 [nM]
1 | Cc1nc(C(=O)NCc2ncccc2C2CC2)c(N)nc1-c1ncco1 [Ex-6, 3-amino-N-[(3-cyclopropylpyridin-2-yl)methyl]-6-methyl-5-(1,3-oxazol-2-yl)pyrazine-2-carboxamide] | 5.9
2 | Cc1nc(C(=O)N[C@@H]2CCc3cccnc32)c(N)nc1-c1ncco1 (single isomer, unassigned) [Ex-1A] | 4

Same assay, conditions: membranes from HEK293 cells expressing human A2a receptor; Ki by Cheng-Prusoff equation

Row | Structure (SMILES) | Ki [nM]
3 | Cc1nc(C(=O)N[C@@H]2CCC[C@H]2O)c(N)nc1-c1ncco1 [Ex-202, 3-amino-N-[(1R,2R)-2-hydroxycyclopentyl]-6-methyl-5-(1,3-oxazol-2-yl)pyrazine-2-carboxamide] | 2.22
4 | Cc1cnn(-c2nc(N)c(C(=O)NCc3ccc(F)cc3F)nc2Cl)n1 [Ex-344, 3-amino-6-chloro-N-(2,4-difluorobenzyl)-5-(4-methyl-2H-1,2,3-triazol-2-yl)pyrazine-2-carboxamide] | 31
5 | Cc1cccnc1CNC(=O)c1nc(C)c(-c2nc(C)c(C)o2)nc1N [Ex-381, 3-amino-5-(4,5-dimethyl-1,3-oxazol-2-yl)-6-methyl-N-[(3-methylpyridin-2-yl)methyl]pyrazine-2-carboxamide] | 80.5
6 | Nc1nc(-n2nccn2)c(Cl)nc1C(=O)N[C@@H]1CCc2ccccc21 [Ex-281, 3-amino-6-chloro-N-[(1R)-2,3-dihydro-1H-inden-1-yl]-5-(2H-1,2,3-triazol-2-yl)pyrazine-2-carboxamide] | 5.7
7 | Cc1nc(C(=O)NCc2ncccc2C2CC2)c(N)nc1-c1ncco1 [Ex-6, 3-amino-N-[(3-cyclopropylpyridin-2-yl)methyl]-6-methyl-5-(1,3-oxazol-2-yl)pyrazine-2-carboxamide] | 0.224
8 | Nc1nc(-n2nccn2)c(Cl)nc1C(=O)N[C@@H]1C[C@@]1(F)c1ccccc1 [Ex-316, 3-amino-6-chloro-N-[(1R,2R)-2-fluoro-2-phenylcyclopropyl]-5-(2H-1,2,3-triazol-2-yl)pyrazine-2-carboxamide] | 66.9
9 | Nc1nc(-n2nccn2)c(Cl)nc1C(=O)N[C@@H](CO)c1ccccc1 [Ex-312, 3-amino-6-chloro-N-[(1R)-2-hydroxy-1-phenylethyl]-5-(2H-1,2,3-triazol-2-yl)pyrazine-2-carboxamide] | 607
10 | Cc1nc(C(=O)NCc2ccccn2)c(N)nc1-c1ncco1 [Ex-51, 3-amino-6-methyl-5-(1,3-oxazol-2-yl)-N-(pyridin-2-ylmethyl)pyrazine-2-carboxamide] | 0.717
11 | Cc1nc(C(=O)NCc2cccc3c2ncn3CC2CC2)c(N)nc1-c1ncco1 [Ex-229, 3-amino-N-{[1-(cyclopropylmethyl)-1H-benzimidazol-4-yl]methyl}-6-methyl-5-(1,3-oxazol-2-yl)pyrazine-2-carboxamide] | 0.358
12 | Nc1nc(-n2nccn2)c(Cl)nc1C(=O)NCc1cccc2ccncc12 [Ex-297, 3-amino-6-chloro-N-(isoquinolin-8-ylmethyl)-5-(2H-1,2,3-triazol-2-yl)pyrazine-2-carboxamide] | 1.65
13 | Cc1nc(C(=O)NCc2n[nH]c3c2CCCCC3)c(N)nc1-c1ncco1 [Ex-161, 3-amino-N-(1,4,5,6,7,8-hexahydrocyclohepta[c]pyrazol-3-ylmethyl)-6-methyl-5-(1,3-oxazol-2-yl)pyrazine-2-carboxamide] | 0.293
14 | Cc1nc(C(=O)NC2CCc3ccc(Cl)nc32)c(N)nc1-c1ncco1 (single isomer, unassigned) [Ex-245A, 3-amino-N-(2-chloro-6,7-dihydro-5H-cyclopenta[b]pyridin-7-yl)-6-methyl-5-(1,3-oxazol-2-yl)pyrazine-2-carboxamide] | 6.69
15 | Nc1nc(-n2nccn2)c(Cl)nc1C(=O)NC1CCNc2ccccc21 (stereo not shown) [Ex-293, 3-amino-6-chloro-N-(1,2,3,4-tetrahydroquinolin-4-yl)-5-(2H-1,2,3-triazol-2-yl)pyrazine-2-carboxamide] | 107
16 | Cc1nc(C(=O)N[C@@H]2CCC[C@@H]2O)c(N)nc1-c1ncco1 [Ex-212, 3-amino-N-[(1R,2S)-2-hydroxycyclopentyl]-6-methyl-5-(1,3-oxazol-2-yl)pyrazine-2-carboxamide] | 98.9
17 | Nc1nc(-n2nccn2)c(Cl)nc1C(=O)NCc1ccc2ccccc2n1 [Ex-306, 3-amino-6-chloro-N-(quinolin-2-ylmethyl)-5-(2H-1,2,3-triazol-2-yl)pyrazine-2-carboxamide] | 48.6
18 | Cc1nc(C(=O)N(C)[C@@H]2CCC[C@H]2O)c(N)nc1-c1ncco1 [Ex-205, 3-amino-N-[(1R,2R)-2-hydroxycyclopentyl]-N,6-dimethyl-5-(1,3-oxazol-2-yl)pyrazine-2-carboxamide] | 385

Row | Structure (SMILES) | Ki [nM]
19 | Cc1nc(C(=O)NCc2ncccc2C(F)(F)F)c(N)nc1-c1cnco1 [Ex-257, 3-amino-6-methyl-5-(1,3-oxazol-5-yl)-N-{[3-(trifluoromethyl)pyridin-2-yl]methyl}pyrazine-2-carboxamide] | 1.94
20 | Cc1nc(C(=O)NCc2ncc(F)cc2Cl)c(N)nc1-c1ncco1 [Ex-47, 3-amino-N-[(3-chloro-5-fluoropyridin-2-yl)methyl]-6-methyl-5-(1,3-oxazol-2-yl)pyrazine-2-carboxamide] | 1.8
21 | COc1ccc(CNC(=O)c2nc(C)c(-c3ncco3)nc2N)cc1 [Ex-148, 3-amino-N-(4-methoxybenzyl)-6-methyl-5-(1,3-oxazol-2-yl)pyrazine-2-carboxamide] | 15.8
22 | Cc1nc(C(=O)NCc2ccc(C)n2C)c(N)nc1-c1ncco1 [Ex-142, 3-amino-N-[(1,5-dimethyl-1H-pyrrol-2-yl)methyl]-6-methyl-5-(1,3-oxazol-2-yl)pyrazine-2-carboxamide] | 0.704
23 | Cc1nc(C(=O)NCc2cc3ccccc3cn2)c(N)nc1-c1ncco1 [Ex-29, 3-amino-N-(isoquinolin-3-ylmethyl)-6-methyl-5-(1,3-oxazol-2-yl)pyrazine-2-carboxamide] | 0.336
24 | Cc1cnn(-c2nc(N)c(C(=O)NCc3cncc4ccccc34)nc2Cl)c1 [Ex-361, 3-amino-6-chloro-N-(isoquinolin-4-ylmethyl)-5-(4-methyl-1H-pyrazol-1-yl)pyrazine-2-carboxamide] | 63.2
25 | Cc1cc(C)c(CNC(=O)c2nc(C)c(-c3ncco3)nc2N)c(C)c1 [Ex-136, 3-amino-6-methyl-5-(1,3-oxazol-2-yl)-N-(2,4,6-trimethylbenzyl)pyrazine-2-carboxamide] | 0.267
26 | Cc1cc(F)cnc1CNC(=O)c1nc(C)c(-c2ncco2)nc1N [Ex-107, 3-amino-N-[(5-fluoro-3-methylpyridin-2-yl)methyl]-6-methyl-5-(1,3-oxazol-2-yl)pyrazine-2-carboxamide] | 1.15
27 | Cc1nc(C(=O)N[C@@H]2CCc3ccccc32)c(N)nc1-c1ncco1 [Ex-140, 3-amino-N-[(1R)-2,3-dihydro-1H-inden-1-yl]-6-methyl-5-(1,3-oxazol-2-yl)pyrazine-2-carboxamide] | 0.225
28 | Cc1ccc(C)c(CNC(=O)c2nc(C)c(-c3ncco3)nc2N)n1 [Ex-41, 3-amino-N-[(3,6-dimethylpyridin-2-yl)methyl]-6-methyl-5-(1,3-oxazol-2-yl)pyrazine-2-carboxamide] | 0.593
29 | COc1ccc(CCNC(=O)c2nc(Cl)c(-n3nccn3)nc2N)cc1OC [Ex-294, 3-amino-6-chloro-N-[2-(3,4-dimethoxyphenyl)ethyl]-5-(2H-1,2,3-triazol-2-yl)pyrazine-2-carboxamide] | 68.8
30 | N#Cc1nc(C(=O)NCc2ncccc2C(F)(F)F)c(N)nc1-c1ncco1 [Ex-386, 3-amino-6-cyano-5-(1,3-oxazol-2-yl)-N-{[3-(trifluoromethyl)pyridin-2-yl]methyl}pyrazine-2-carboxamide] | 0.3
31 | Nc1nc(-n2nccn2)c(Cl)nc1C(=O)NCc1ccccc1OC(F)(F)F [Ex-284] | 6.5
32 | Cc1nc(C(=O)NCc2nnc3n2CCC3)c(N)nc1-c1ncco1 [Ex-160, 3-amino-N-(6,7-dihydro-5H-pyrrolo[2,1-c][1,2,4]triazol-3-ylmethyl)-6-methyl-5-(1,3-oxazol-2-yl)pyrazine-2-carboxamide] | 264
33 | Cc1nc(C(=O)NCc2cc(C(F)F)nc(C(F)F)c2)c(N)nc1-c1ncco1 [Ex-75, 3-amino-N-{[2,6-bis(difluoromethyl)pyridin-4-yl]methyl}-6-methyl-5-(1,3-oxazol-2-yl)pyrazine-2-carboxamide] | 40.4
34 | CN1CCC(NC(=O)c2nc(Cl)c(-n3nccn3)nc2N)c2ccccc21 (stereo not shown) [Ex-322, 3-amino-6-chloro-N-(1-methyl-1,2,3,4-tetrahydroquinolin-4-yl)-5-(2H-1,2,3-triazol-2-yl)pyrazine-2-carboxamide] | 61.9
